Data published in the NIST ThermoML archive (doi:10.1021/acs.jced.9b00846).

Details: Liquid, Vibrating tube method

CCC(C)CC [3-methylpentane]
Details	mass density [kg/m3]
283.15 K, 96 kPa	673.7
283.15 K, 4984 kPa	678.4
283.15 K, 9983 kPa	682.9
283.15 K, 14976 kPa	687.2
283.15 K, 20022 kPa	691.2
283.15 K, 25054 kPa	695
283.15 K, 29951 kPa	698.6
283.15 K, 35044 kPa	702.1
283.15 K, 40019 kPa	705.4
283.15 K, 45032 kPa	708.6
283.15 K, 50012 kPa	711.7
283.15 K, 54940 kPa	714.6
283.15 K, 59937 kPa	717.5
283.15 K, 64969 kPa	720.3
288.15 K, 123 kPa	669.3
288.15 K, 4981 kPa	674.1
288.15 K, 10014 kPa	678.9
288.15 K, 14991 kPa	683.2
288.15 K, 19942 kPa	687.3
288.15 K, 25033 kPa	691.3
288.15 K, 29989 kPa	695
288.15 K, 35037 kPa	698.6
288.15 K, 39987 kPa	701.9
288.15 K, 45029 kPa	705.2
288.15 K, 50061 kPa	708.4
288.15 K, 54941 kPa	711.3
288.15 K, 59951 kPa	714.3
288.15 K, 65035 kPa	717.1
293.15 K, 98 kPa	664.7
293.15 K, 4913 kPa	669.7
293.15 K, 9979 kPa	674.6
293.15 K, 14916 kPa	679.1
293.15 K, 19985 kPa	683.5
293.15 K, 24964 kPa	687.5
293.15 K, 30011 kPa	691.3
293.15 K, 34951 kPa	694.9
293.15 K, 40003 kPa	698.4
293.15 K, 45015 kPa	701.8
293.15 K, 49957 kPa	705
293.15 K, 54949 kPa	708.1
293.15 K, 60008 kPa	711.1
293.15 K, 65001 kPa	714
298.15 K, 123 kPa	660.1
298.15 K, 4936 kPa	665.3
298.15 K, 9999 kPa	670.4
298.15 K, 15031 kPa	675.1
298.15 K, 20036 kPa	679.5
298.15 K, 25016 kPa	683.7
298.15 K, 29992 kPa	687.6
298.15 K, 34973 kPa	691.3
298.15 K, 40043 kPa	694.9
298.15 K, 45008 kPa	698.3
298.15 K, 49987 kPa	701.6
298.15 K, 54938 kPa	704.8
298.15 K, 59982 kPa	707.8
298.15 K, 65001 kPa	710.8
303.15 K, 106 kPa	655.4
303.15 K, 4970 kPa	660.9
303.15 K, 9996 kPa	666.1
303.15 K, 15043 kPa	671.1
303.15 K, 20006 kPa	675.6
303.15 K, 25024 kPa	679.9
303.15 K, 29956 kPa	683.9
303.15 K, 34990 kPa	687.7
303.15 K, 39963 kPa	691.4
303.15 K, 44991 kPa	694.9
303.15 K, 49940 kPa	698.2
303.15 K, 54932 kPa	701.5
303.15 K, 59961 kPa	704.6
303.15 K, 65012 kPa	707.7
308.15 K, 109 kPa	650.6
308.15 K, 4967 kPa	656.3
308.15 K, 10001 kPa	661.8
308.15 K, 14988 kPa	666.8
308.15 K, 19945 kPa	671.5
308.15 K, 25037 kPa	676
308.15 K, 29968 kPa	680.1
308.15 K, 35020 kPa	684
308.15 K, 39963 kPa	687.8
308.15 K, 44985 kPa	691.4
308.15 K, 49992 kPa	694.8
308.15 K, 54921 kPa	698.1
308.15 K, 60008 kPa	701.4
308.15 K, 64999 kPa	704.4
313.15 K, 117 kPa	645.9
313.15 K, 4981 kPa	651.9
313.15 K, 9993 kPa	657.5
313.15 K, 15145 kPa	662.9
313.15 K, 20027 kPa	667.6
313.15 K, 25088 kPa	672.2
313.15 K, 30012 kPa	676.4
313.15 K, 35003 kPa	680.4
313.15 K, 40042 kPa	684.3
313.15 K, 45054 kPa	688
313.15 K, 49996 kPa	691.5
313.15 K, 54926 kPa	694.8
313.15 K, 60053 kPa	698.2
313.15 K, 65063 kPa	701.3
318.15 K, 107 kPa	641.1
318.15 K, 4955 kPa	647.4
318.15 K, 9991 kPa	653.3
318.15 K, 15039 kPa	658.8
318.15 K, 20021 kPa	663.7
318.15 K, 25060 kPa	668.4
318.15 K, 29991 kPa	672.8
318.15 K, 34997 kPa	676.9
318.15 K, 40044 kPa	680.9
318.15 K, 44936 kPa	684.6
318.15 K, 49998 kPa	688.3
318.15 K, 55010 kPa	691.7
318.15 K, 59996 kPa	695.1
318.15 K, 65008 kPa	698.3
323.15 K, 106 kPa	636.3
323.15 K, 4980 kPa	642.9
323.15 K, 9966 kPa	649
323.15 K, 15009 kPa	654.6
323.15 K, 20016 kPa	659.8
323.15 K, 24987 kPa	664.6
323.15 K, 30019 kPa	669.1
323.15 K, 34996 kPa	673.3
323.15 K, 40041 kPa	677.4
323.15 K, 44988 kPa	681.2
323.15 K, 49949 kPa	684.9
323.15 K, 55004 kPa	688.5
323.15 K, 59997 kPa	691.8
323.15 K, 64995 kPa	695.1
328.15 K, 4974 kPa	638.3
328.15 K, 9983 kPa	644.6
328.15 K, 14977 kPa	650.4
328.15 K, 20010 kPa	655.8
328.15 K, 25021 kPa	660.8
328.15 K, 29956 kPa	665.4
328.15 K, 34961 kPa	669.7
328.15 K, 40039 kPa	673.9
328.15 K, 45005 kPa	677.9
328.15 K, 50036 kPa	681.7
328.15 K, 54981 kPa	685.2
328.15 K, 60023 kPa	688.7
328.15 K, 65018 kPa	692
333.15 K, 4969 kPa	633.7
333.15 K, 9932 kPa	640.2
333.15 K, 15031 kPa	646.3
333.15 K, 19959 kPa	651.8
333.15 K, 25022 kPa	657
333.15 K, 29983 kPa	661.7
333.15 K, 34948 kPa	666.1
333.15 K, 39982 kPa	670.4
333.15 K, 45015 kPa	674.5
333.15 K, 49968 kPa	678.3
333.15 K, 54981 kPa	682
333.15 K, 59935 kPa	685.5
333.15 K, 65077 kPa	689
338.15 K, 5021 kPa	629
338.15 K, 10019 kPa	635.9
338.15 K, 15009 kPa	642.1
338.15 K, 20030 kPa	647.8
338.15 K, 25053 kPa	653.1
338.15 K, 29999 kPa	658
338.15 K, 34951 kPa	662.6
338.15 K, 39974 kPa	667
338.15 K, 45053 kPa	671.2
338.15 K, 49966 kPa	675.1
338.15 K, 54970 kPa	678.8
338.15 K, 59984 kPa	682.5
338.15 K, 65015 kPa	685.9
343.15 K, 5000 kPa	624.2
343.15 K, 10002 kPa	631.4
343.15 K, 15025 kPa	637.8
343.15 K, 20016 kPa	643.7
343.15 K, 24973 kPa	649.1
343.15 K, 29947 kPa	654.2
343.15 K, 34977 kPa	658.9
343.15 K, 39962 kPa	663.4
343.15 K, 44924 kPa	667.6
343.15 K, 50034 kPa	671.8
343.15 K, 54984 kPa	675.6
343.15 K, 59973 kPa	679.3
343.15 K, 65018 kPa	682.9
348.15 K, 4999 kPa	619.4
348.15 K, 10005 kPa	626.9
348.15 K, 15001 kPa	633.6
348.15 K, 19997 kPa	639.7
348.15 K, 24983 kPa	645.3
348.15 K, 30044 kPa	650.6
348.15 K, 34962 kPa	655.3
348.15 K, 40008 kPa	660
348.15 K, 44956 kPa	664.3
348.15 K, 50006 kPa	668.4
348.15 K, 54987 kPa	672.4
348.15 K, 59977 kPa	676.1
348.15 K, 65005 kPa	679.8
353.15 K, 4969 kPa	614.4
353.15 K, 9927 kPa	622.1
353.15 K, 14990 kPa	629.2
353.15 K, 20018 kPa	635.5
353.15 K, 25032 kPa	641.3
353.15 K, 29979 kPa	646.6
353.15 K, 34952 kPa	651.6
353.15 K, 39962 kPa	656.4
353.15 K, 44947 kPa	660.8
353.15 K, 49917 kPa	665
353.15 K, 55013 kPa	669.1
353.15 K, 59927 kPa	672.9
353.15 K, 65026 kPa	676.6
358.15 K, 4945 kPa	609.3
358.15 K, 9952 kPa	617.5
358.15 K, 15000 kPa	624.7
358.15 K, 20004 kPa	631.3
358.15 K, 25020 kPa	637.3
358.15 K, 29990 kPa	642.7
358.15 K, 34993 kPa	647.8
358.15 K, 40000 kPa	652.7
358.15 K, 44971 kPa	657.2
358.15 K, 49932 kPa	661.5
358.15 K, 54965 kPa	665.6
358.15 K, 59980 kPa	669.6
358.15 K, 65056 kPa	673.4
363.15 K, 5004 kPa	604.2
363.15 K, 9965 kPa	612.8
363.15 K, 15052 kPa	620.5
363.15 K, 19925 kPa	627.1
363.15 K, 25013 kPa	633.3
363.15 K, 29929 kPa	638.9
363.15 K, 35008 kPa	644.2
363.15 K, 39979 kPa	649.1
363.15 K, 45062 kPa	653.9
363.15 K, 50011 kPa	658.2
363.15 K, 54995 kPa	662.4
363.15 K, 60039 kPa	666.4
363.15 K, 65041 kPa	670.2
